Laboratory results: publication PMC11173301, “On the Cholesterol Raising Effect of Coffee Diterpenes Cafestol and 16-O-Methylcafestol: Interaction with Farnesoid X Receptor” (International Journal of Molecular Sciences, 2024)

Molecular target: T1, FXR-LBD (FXR-WT; stabilized mutant FXR-CCEE) (Homo sapiens, UniProt Q96RI1)
T1 construct: gene NR1H4; plasmid from Prof; Jinsong Liu; CCEE = C432E/C466E
T1 sequence (Q96RI1 225-472 isoform Q96RI1-2): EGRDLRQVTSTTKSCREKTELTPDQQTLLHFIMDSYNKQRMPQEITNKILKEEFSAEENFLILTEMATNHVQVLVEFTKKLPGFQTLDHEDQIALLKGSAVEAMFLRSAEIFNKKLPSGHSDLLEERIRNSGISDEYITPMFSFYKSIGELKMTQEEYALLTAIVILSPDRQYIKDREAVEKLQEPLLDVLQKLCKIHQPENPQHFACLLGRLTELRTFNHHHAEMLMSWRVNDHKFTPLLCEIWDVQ
Assay: intrinsic fluorescence titration, Stern-Volmer
Assay type: binding
Details: […] protein, phosphate pH […] NaCl, […] glycerol, […] °C; no inner filter correction
From the text: intrinsic fluorescence titration, Stern-Volmer on FXR-LBD (FXR-WT; stabilized mutant FXR-CCEE) | With GG, the numbers for the FXR-WT and the FXR-CCEE mutant were quite different

Stern-Volmer constant (KSV): 33650 ± 5000 L/mol
Structure (SMILES): C/C=C1\C(=O)C[C@H]2[C@@H]3CCC4=CC(=O)CC[C@]4(C)[C@H]3CC[C@]12C [guggulsterone]
